According to ChEMBL document CHEMBL1201862, “PubChem BioAssay data set” (2004):
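Following 48 hours of exposure in 96-well plates, responses at five concentrations were used to interpolate endpoints linearly. GI50 marks 50% less growth.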 The source made the active and inactive calls. No stated cut-off is given here; in the data, active = GI50 up to about 1.1 µM and inactive = higher.

Assays:
Experiment in all cases: NCI anticancer screen, dose series, 48 h
NCI-H522 = system: NCI-H522
NCI-H460 = system: NCI-H460
SF-539 = system: SF-539
PC-3 = system: PC-3
T47D = system: T47D
786-0 = system: 786-0
OVCAR-5 = system: OVCAR-5
SN12C = system: SN12C
DU-145 = system: DU-145
HOP-62 = system: HOP-62
SK-MEL-28 = system: SK-MEL-28
UACC-62 = system: UACC-62
LOX IMVI = system: LOX IMVI
CCRF-CEM = system: CCRF-CEM
OVCAR-3 = system: OVCAR-3
NCI-H23 = system: NCI-H23
U-251 = system: U-251
A498 = system: A498
IGROV-1 = system: IGROV-1
RXF 393 = system: RXF 393
RPMI-8226 = system: RPMI-8226
UACC-257 = system: UACC-257
OVCAR-4 = system: OVCAR-4
SNB-75 = system: SNB-75
SF-295 = system: SF-295
SK-MEL-2 = system: SK-MEL-2
ACHN = system: ACHN
MDA-MB-231 = system: MDA-MB-231
NCI/ADR-RES = system: NCI/ADR-RES
KM12 = system: KM12
MDA-N = system: MDA-N
HL-60 = system: HL-60
TK-10 = system: TK-10
SW-620 = system: SW-620
A549 = system: A549
HCT-15 = system: HCT-15
K562 = system: K562
Hs-578T = system: Hs-578T
HCT-116 = system: HCT-116
UO-31 = system: UO-31
SF-268 = system: SF-268
NCI-H226 = system: NCI-H226
COLO 205 = system: COLO 205
MCF7 = system: MCF7
BT-549 = system: BT-549
HOP-92 = system: HOP-92
SK-MEL-5 = system: SK-MEL-5
SNB-19 = system: SNB-19
SR = system: SR
Malme-3M = system: Malme-3M
EKVX = system: EKVX
M14 = system: M14
MDA-MB-435 = system: MDA-MB-435
CAKI-1 = system: CAKI-1
HT-29 = system: HT-29
OVCAR-8 = system: OVCAR-8
SK-OV-3 = system: SK-OV-3
HCC 2998 = system: HCC 2998
MOLT-4 = system: MOLT-4

SMILES: c1ccc(C2=Nc3cccc4cccc(c34)N2)cc1
- GI50 (NCI-H522): 12.2 µM (inactive)
- GI50 (NCI-H460): 57 µM (inactive)
- GI50 (SF-539): 56.2 µM (inactive)
- GI50 (PC-3): 22.8 µM (inactive)
- GI50 (T47D): 4.63 µM (inactive)
- GI50 (786-0): 42.8 µM (inactive)
- GI50 (OVCAR-5): 69.5 µM (inactive)
- GI50 (SN12C): > 78.7 µM (inactive)
- GI50 (DU-145): > 90.2 µM (inactive)
- GI50 (HOP-62): > 100 µM (inactive)
- GI50 (SK-MEL-28): > 79.1 µM (inactive)
- GI50 (UACC-62): 37.9 µM (inactive)
- GI50 (LOX IMVI): 23.5 µM (inactive)
- GI50 (CCRF-CEM): 3.82 µM (inactive)
- GI50 (OVCAR-3): 23.7 µM (inactive)
- GI50 (NCI-H23): > 60.5 µM (inactive)
- GI50 (U-251): > 100 µM (inactive)
- GI50 (A498): > 100 µM (inactive)
- GI50 (IGROV-1): > 54.6 µM (inactive)
- GI50 (RXF 393): 22 µM (inactive)
- GI50 (RPMI-8226): 22.6 µM (inactive)
- GI50 (UACC-257): > 69.5 µM (inactive)
- GI50 (OVCAR-4): 18.7 µM (inactive)
- GI50 (SNB-75): > 90.6 µM (inactive)
- GI50 (SF-295): 58.2 µM (inactive)
- GI50 (SK-MEL-2): > 46.3 µM (inactive)
- GI50 (ACHN): 26.2 µM (inactive)
- GI50 (MDA-MB-231): 19.7 µM (inactive)
- GI50 (NCI/ADR-RES): 30.8 µM (inactive)
- GI50 (KM12): 28.3 µM (inactive)
- GI50 (MDA-N): 45.3 µM (inactive)
- GI50 (HL-60): 2.88 µM (inactive)
- GI50 (TK-10): 48.9 µM (inactive)
- GI50 (SW-620): 20.4 µM (inactive)
- GI50 (A549): 56.9 µM (inactive)
- GI50 (HCT-15): 28.6 µM
- GI50 (K562): 32 µM (inactive)
- GI50 (Hs-578T): 58.1 µM (inactive)
- GI50 (HCT-116): 23.3 µM (inactive)
- GI50 (UO-31): 21.3 µM (inactive)
- GI50 (SF-268): 44.8 µM (inactive)
- GI50 (NCI-H226): > 78.3 µM (inactive)
- GI50 (COLO 205): 18.6 µM (inactive)
- GI50 (MCF7): 40.8 µM (inactive)
- GI50 (BT-549): > 44.2 µM (inactive)
- GI50 (HOP-92): 24.4 µM (inactive)
- GI50 (SK-MEL-5): 56.2 µM (inactive)
- GI50 (SNB-19): > 100 µM (inactive)
- GI50 (SR): 9.48 µM (inactive)
- GI50 (Malme-3M): 43.5 µM (inactive)
- GI50 (EKVX): > 51.1 µM (inactive)
- GI50 (M14): 44.7 µM (inactive)
- GI50 (MDA-MB-435): 48.8 µM (inactive)
- GI50 (CAKI-1): 37.2 µM (inactive)
- GI50 (HT-29): 43.5 µM (inactive)
- GI50 (OVCAR-8): 35.5 µM (inactive)
- GI50 (SK-OV-3): > 100 µM (inactive)
- GI50 (HCC 2998): 43.9 µM (inactive)

SMILES: CC(=O)OC1CCn2c1nc1c2C(=O)C=C(N2CC2)C1=O (centres undefined)
- GI50 (NCI-H522): 0.0112 µM (active)
- GI50 (NCI-H460): 1.15 µM (inactive)
- GI50 (SF-539): 0.22 µM (active)
- GI50 (PC-3): 0.931 µM (active)
- GI50 (T47D): 0.745 µM (active)
- GI50 (786-0): 0.108 µM (active)
- GI50 (OVCAR-5): 0.774 µM (active)
- GI50 (SN12C): 0.65 µM (active)
- GI50 (DU-145): 3.31 µM (inactive)
- GI50 (HOP-62): 2.11 µM (inactive)
- GI50 (SK-MEL-28): 0.0314 µM (active)
- GI50 (UACC-62): 0.0697 µM (active)
- GI50 (LOX IMVI): 0.0719 µM (active)
- GI50 (CCRF-CEM): < 0.01 µM (active)
- GI50 (OVCAR-3): 0.215 µM (active)
- GI50 (NCI-H23): 0.269 µM (active)
- GI50 (U-251): 0.218 µM (active)
- GI50 (A498): 0.218 µM (active)
- GI50 (IGROV-1): 0.449 µM (active)
- GI50 (RXF 393): 0.0748 µM (active)
- GI50 (RPMI-8226): 0.251 µM (active)
- GI50 (UACC-257): 0.292 µM (active)
- GI50 (OVCAR-4): 0.0746 µM (active)
- GI50 (SNB-75): 0.174 µM (active)
- GI50 (MOLT-4): 0.033 µM (active)
- GI50 (SF-295): 1.81 µM (inactive)
- GI50 (SK-MEL-2): 0.2 µM (active)
- GI50 (ACHN): 0.0354 µM (active)
- GI50 (MDA-MB-231): 1.91 µM (inactive)
- GI50 (NCI/ADR-RES): 0.402 µM (active)
- GI50 (MDA-N): 0.332 µM (active)
- GI50 (HL-60): 0.17 µM (active)
- GI50 (TK-10): 0.292 µM (active)
- GI50 (SW-620): < 0.0211 µM (active)
- GI50 (A549): 1.41 µM (inactive)
- GI50 (HCT-15): 0.403 µM
- GI50 (K562): 0.394 µM (active)
- GI50 (Hs-578T): 0.524 µM (active)
- GI50 (HCT-116): 0.153 µM (active)
- GI50 (UO-31): 0.103 µM (active)
- GI50 (SF-268): 0.185 µM (active)
- GI50 (NCI-H226): 1.86 µM (inactive)
- GI50 (COLO 205): 0.0697 µM (active)
- GI50 (MCF7): 0.173 µM (active)
- GI50 (BT-549): 1.27 µM (inactive)
- GI50 (HOP-92): 0.378 µM (active)
- GI50 (SK-MEL-5): 0.142 µM (active)
- GI50 (SNB-19): 2.88 µM (inactive)
- GI50 (SR): 0.0953 µM (active)
- GI50 (Malme-3M): 0.0311 µM (active)
- GI50 (EKVX): 1.02 µM (active)
- GI50 (M14): 0.0519 µM (active)
- GI50 (MDA-MB-435): 0.476 µM (active)
- GI50 (CAKI-1): 0.032 µM (active)
- GI50 (HT-29): 0.693 µM (active)
- GI50 (OVCAR-8): 0.402 µM (active)
- GI50 (SK-OV-3): 2.15 µM (inactive)
- GI50 (HCC 2998): 1.45 µM (inactive)

SMILES: c1ccc(COCC23CCN(Cc4ccccc4)C(CC(OCc4ccccc4)C2)S3)cc1 (centres undefined)
- GI50 (NCI-H522): 29.7 µM (inactive)
- GI50 (NCI-H460): 46.7 µM (inactive)
- GI50 (SF-539): > 100 µM (inactive)
- GI50 (PC-3): 31.8 µM (inactive)
- GI50 (T47D): 26.4 µM (inactive)
- GI50 (786-0): > 100 µM (inactive)
- GI50 (OVCAR-5): 38.2 µM (inactive)
- GI50 (SN12C): 57.9 µM (inactive)
- GI50 (DU-145): > 100 µM (inactive)
- GI50 (HOP-62): 65.9 µM (inactive)
- GI50 (SK-MEL-28): > 100 µM (inactive)
- GI50 (UACC-62): 52.4 µM (inactive)
- GI50 (LOX IMVI): 19.3 µM (inactive)
- GI50 (CCRF-CEM): 56.8 µM (inactive)
- GI50 (OVCAR-3): 97.5 µM (inactive)
- GI50 (NCI-H23): 31.4 µM (inactive)
- GI50 (U-251): 44.8 µM (inactive)
- GI50 (A498): 39.3 µM (inactive)
- GI50 (IGROV-1): > 100 µM (inactive)
- GI50 (RXF 393): > 100 µM (inactive)
- GI50 (RPMI-8226): 35.2 µM (inactive)
- GI50 (UACC-257): 45.3 µM (inactive)
- GI50 (OVCAR-4): 53.1 µM (inactive)
- GI50 (SNB-75): > 100 µM (inactive)
- GI50 (MOLT-4): 25.6 µM (inactive)
- GI50 (SF-295): 87.1 µM (inactive)
- GI50 (SK-MEL-2): 37.2 µM (inactive)
- GI50 (ACHN): 78.9 µM (inactive)
- GI50 (MDA-MB-231): 66.4 µM (inactive)
- GI50 (NCI/ADR-RES): 83 µM (inactive)
- GI50 (KM12): 44.1 µM (inactive)
- GI50 (MDA-N): 50.9 µM (inactive)
- GI50 (HL-60): 19.5 µM (inactive)
- GI50 (SW-620): > 100 µM (inactive)
- GI50 (A549): 41.4 µM (inactive)
- GI50 (HCT-15): 28.6 µM
- GI50 (K562): 31 µM (inactive)
- GI50 (Hs-578T): 86.3 µM (inactive)
- GI50 (HCT-116): 42.7 µM (inactive)
- GI50 (UO-31): 30.2 µM (inactive)
- GI50 (SF-268): 73.3 µM (inactive)
- GI50 (NCI-H226): 97.3 µM (inactive)
- GI50 (COLO 205): 35.2 µM (inactive)
- GI50 (MCF7): 14.8 µM (inactive)
- GI50 (BT-549): 42.6 µM (inactive)
- GI50 (HOP-92): 20.3 µM (inactive)
- GI50 (SK-MEL-5): 15.8 µM (inactive)
- GI50 (SNB-19): 90.8 µM (inactive)
- GI50 (SR): 26.6 µM (inactive)
- GI50 (Malme-3M): 29.7 µM (inactive)
- GI50 (EKVX): 49 µM (inactive)
- GI50 (M14): 39.3 µM (inactive)
- GI50 (MDA-MB-435): 46 µM (inactive)
- GI50 (CAKI-1): 77.1 µM (inactive)
- GI50 (HT-29): 25.8 µM (inactive)
- GI50 (OVCAR-8): 73.5 µM (inactive)
- GI50 (SK-OV-3): > 100 µM (inactive)
- GI50 (HCC 2998): 58.5 µM (inactive)
